The conditions of series [1]: cited from earlier work.
The target of series [2] is T1, human Glucagon receptor (GCGR) (Homo sapiens, UniProt P47871).
T1 construct: A cDNA fragment encoding the full-length open reading frame of the human GCGR; expressed in transfected cells; host or cells: CHO-K1, pcDNA3.1+, Lipofectamine 2000
The series is described as follows: cAMP accumulation assay, CHO-K1 cells expressing human GCGR. Format: cell-based. As to conditions: mean pEC50, Table 10.

Series [3] has as its target T2, human GLP-1 receptor (GLP-1R) (Homo sapiens, UniProt P43220).
T2 construct: expressed in transfected cells
The series is described as follows: cAMP accumulation assay, CHO-K1 cells stably expressing human GLP-1R. As to conditions: cAMP accumulation, mean pEC50, Table 10. Format: cell-based.

*1 amine or outer side, *2 acyl side, *3 side chain or, on linkers, in order; H or OH if unused. Where a SMILES comes first, the peptide text is derived from it. Bridges are numbered along the chain shown (N, C = ends). Side-chain parts run from the residue outwards. [ ]: non-standard residue; d: D form. The star is where a group is joined. C20 diacid = O=C(O)CCCCCCCCCCCCCCCCCCC(=O)*; γGlu = O=C(O)[C@H](CCC(=O)[*:2])N[*:1]; AEEA = NCCOCCOCC(=O)O; Aib = CC(C)(N)C(=O)O A value given as a limit tells only on which side of the number the result lay.

The EC50 is the concentration at which the effect is half-maximal. A higher EC50 goes with lower potency in that assay.

T1 sequence (P47871 26-477): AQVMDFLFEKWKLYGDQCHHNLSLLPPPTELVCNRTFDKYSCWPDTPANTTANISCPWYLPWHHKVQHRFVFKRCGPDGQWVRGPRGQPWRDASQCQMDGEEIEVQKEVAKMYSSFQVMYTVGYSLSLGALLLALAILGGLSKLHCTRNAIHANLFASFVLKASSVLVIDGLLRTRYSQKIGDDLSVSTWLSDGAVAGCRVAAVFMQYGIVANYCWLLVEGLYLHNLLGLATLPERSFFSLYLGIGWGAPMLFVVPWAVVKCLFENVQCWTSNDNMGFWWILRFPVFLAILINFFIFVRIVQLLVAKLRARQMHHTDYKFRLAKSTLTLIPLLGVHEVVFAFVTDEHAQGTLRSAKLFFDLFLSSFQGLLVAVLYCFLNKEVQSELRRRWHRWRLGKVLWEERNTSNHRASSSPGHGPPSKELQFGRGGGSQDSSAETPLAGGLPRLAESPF
T2 sequence (P43220 24-463): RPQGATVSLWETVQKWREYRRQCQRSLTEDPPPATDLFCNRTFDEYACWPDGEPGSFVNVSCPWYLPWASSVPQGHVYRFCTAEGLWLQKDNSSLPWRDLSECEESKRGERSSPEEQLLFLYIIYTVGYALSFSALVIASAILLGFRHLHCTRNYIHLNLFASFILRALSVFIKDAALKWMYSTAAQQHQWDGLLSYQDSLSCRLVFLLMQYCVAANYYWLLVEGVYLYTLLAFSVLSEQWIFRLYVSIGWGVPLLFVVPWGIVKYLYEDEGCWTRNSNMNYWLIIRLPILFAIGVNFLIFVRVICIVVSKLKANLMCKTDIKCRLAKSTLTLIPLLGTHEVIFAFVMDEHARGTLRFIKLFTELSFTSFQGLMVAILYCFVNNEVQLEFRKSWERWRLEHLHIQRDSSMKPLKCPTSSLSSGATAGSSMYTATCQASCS

Take “human amylin: Human amylin, or islet amyloid polypeptide (IAPP), is a 37-residue polypeptide hormone (KCNTATCATQRLANFLVHSSNNFGAILSSTNVGSNTY; Islet amyloid polypeptide; UniProt P10997 34-70, looked up)”: in series [1], the half-life in serum entry is “about 13 minutes”.

For the molecule `CC(C)C[C@H](NC(=O)[C@H](Cc1ccc(O)cc1)NC(=O)[C@H](CCCCN)NC(=O)[C@H](CO)NC(=O)[C@H](Cc1ccc(O)cc1)NC(=O)[C@H](CC(=O)O)NC(=O)[C@H](CO)NC(=O)[C@@H](NC(=O)[C@H](Cc1ccccc1)NC(=O)[C@@H](NC(=O)CNC(=O)[C@H](Cc1c[nH]cn1)NC(=O)[C@H](CO)NC(=O)[C@@H](N)Cc1ccc(O)cc1)[C@@H](C)O)[C@@H](C)O)C(=O)N[C@@H](CC(=O)O)C(=O)N[C@@H](CCCCNC(=O)CC[C@H](NC(=O)CC[C@H](NC(=O)COCCOCCNC(=O)CCCCCCCCCCCCCCCCCCC(=O)O)C(=O)O)C(=O)O)C(=O)N[C@@H](CCCCN)C(=O)N[C@@H](Cc1ccc(O)cc1)C(=O)N[C@@H](C)C(=O)N[C@H]1CCC(=O)NCCCC[C@@H](C(=O)N[C@@H](Cc2c[nH]c3ccccc23)C(=O)N[C@@H](CC(C)C)C(=O)N[C@@H](CCC(=O)O)C(=O)N[C@@H](CC(=O)O)C(=O)N[C@@H](CCC(=O)O)C(=O)N2CCC[C@H]2C(=O)N[C@@H](CO)C(=O)N[C@@H](CO)C(=O)NCC(=O)N[C@@H](C)C(=O)N2CCC[C@H]2C(=O)N2CCC[C@H]2C(=O)N2CCC[C@H]2C(=O)N[C@@H](CO)C(=O)O)NC(=O)[C@H](C(C)C)NC(=O)[C@H](Cc2ccccc2)NC(=O)[C@H](CCC(=O)O)NC1=O` [Compound A12] (H-YSHGTFTSDYSKYLDK([γGlu-γGlu-AEEA-C20 diacid])KYAEEFVKWLEDEPSSGAPPPS-OH; lactam 20-24), the values for the EC50 in series [2] and in series [3] were 1.58 pM and greater than 1000 pM, respectively.

Turning to `CC(C)C[C@H](NC(=O)[C@H](Cc1ccc(O)cc1)NC(=O)[C@H](CCCCN)NC(=O)[C@H](CO)NC(=O)[C@H](Cc1ccc(O)cc1)NC(=O)[C@H](CC(=O)O)NC(=O)[C@H](CO)NC(=O)[C@@H](NC(=O)[C@H](Cc1ccccc1)NC(=O)[C@@H](NC(=O)CNC(=O)[C@H](Cc1c[nH]cn1)NC(=O)[C@H](CO)NC(=O)[C@@H](N)Cc1ccc(O)cc1)[C@@H](C)O)[C@@H](C)O)C(=O)N[C@@H](CC(=O)O)C(=O)N[C@@H](CCCCNC(=O)CC[C@H](NC(=O)CC[C@H](NC(=O)COCCOCCNC(=O)CCCCCCCCCCCCCCCCCCC(=O)O)C(=O)O)C(=O)O)C(=O)N[C@@H](CCCCN)C(=O)N[C@@H](Cc1ccc(O)cc1)C(=O)N[C@@H](C)C(=O)N[C@@H](CCC(=O)O)C(=O)N[C@@H](CCC(=O)O)C(=O)N[C@@H](Cc1ccccc1)C(=O)N[C@H](C(=O)NC(C)(C)C(=O)N[C@@H](Cc1c[nH]c2ccccc12)C(=O)N[C@@H](CC(C)C)C(=O)N[C@@H](CCC(=O)O)C(=O)N[C@@H](CO)C(=O)N[C@@H](CCC(=O)O)C(=O)N1CCC[C@H]1C(=O)N[C@@H](CO)C(=O)N[C@@H](CO)C(=O)NCC(=O)N[C@@H](C)C(=O)N1CCC[C@H]1C(=O)N1CCC[C@H]1C(=O)N1CCC[C@H]1C(=O)N[C@@H](CO)C(=O)O)C(C)C` [Compound A23] (H-YSHGTFTSDYSKYLDK([γGlu-γGlu-AEEA-C20 diacid])KYAEEFV[Aib]WLESEPSSGAPPPS-OH), the EC50 in series [2] is 3.16 pM; in series [3], greater than 1000 pM.

The values are drawn from patent US20240228572A1 (i2o Therapeutics, Inc., priority 2020, published 2024).
